This assay addresses T1, Acetylcholinesterase (Rattus norvegicus, UniProt P37136).
T1 sequence (P37136 whole entry): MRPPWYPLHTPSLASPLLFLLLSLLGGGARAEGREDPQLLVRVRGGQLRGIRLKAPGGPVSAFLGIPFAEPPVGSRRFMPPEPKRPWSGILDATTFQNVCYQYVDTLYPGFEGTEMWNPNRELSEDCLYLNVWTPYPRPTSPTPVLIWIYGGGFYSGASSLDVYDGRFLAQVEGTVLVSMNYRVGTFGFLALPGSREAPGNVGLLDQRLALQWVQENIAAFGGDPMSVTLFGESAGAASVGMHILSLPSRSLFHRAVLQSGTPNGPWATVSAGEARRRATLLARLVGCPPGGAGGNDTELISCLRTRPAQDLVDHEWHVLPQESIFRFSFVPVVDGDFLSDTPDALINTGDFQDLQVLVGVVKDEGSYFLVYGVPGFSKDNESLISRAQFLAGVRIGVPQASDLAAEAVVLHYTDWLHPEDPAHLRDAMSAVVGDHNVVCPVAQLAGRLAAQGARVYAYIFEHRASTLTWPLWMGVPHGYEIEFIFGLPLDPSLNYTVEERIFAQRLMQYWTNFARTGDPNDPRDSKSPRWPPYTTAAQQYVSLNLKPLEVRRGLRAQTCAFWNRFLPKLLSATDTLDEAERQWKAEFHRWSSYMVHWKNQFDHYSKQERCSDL
Description: In vitro inhibitory effect on rat Acetylcholinesterase

`CN(CCOCCNC(=S)NC(=O)c1ccccc1)Cc1ccccc1`: half-maximal inhibition (IC50) required 120 nM. On to `CN(CCOCCNC(=S)NC(=O)C1=CC2C(=O)c3ccccc3C(=O)C2C=C1)Cc1ccccc1` (configuration not stated), for which inhibition was half-maximal at 6 nM (IC50). Turning to `CN(CCOCCNC(=S)NC(=O)c1ccc2c(c1)-c1ccccc1C2=O)Cc1ccccc1`, 30 nM corresponded to half-maximal inhibition (IC50). Regarding `CN(CCOCCNC(=S)Nc1ccc(OC(F)(F)F)cc1)Cc1ccccc1`, the IC50 (commonly the concentration needed to halve the response being measured) turned out to be 1000 nM.

Take `CN(CCOCCCNC(=S)NC(=O)c1ccccc1)Cc1ccccc1`: half-maximal inhibition (IC50) required 1100 nM. The compound `CN(CCOCCNC(=S)NC(=O)c1ccc(-c2ccccc2)cc1)Cc1ccccc1` had an IC50 of 230 nM. This IC50 lies about 4.8-fold lower than the previous one. Compound `CN(CCOCCNC(=S)NC(=O)c1ccc(Cl)c(Cl)c1)Cc1ccccc1` had an IC50 of 55 nM. The compound `Cc1ccc(C(=O)NC(=S)NCCOCCN(C)Cc2ccccc2)cc1` displayed an IC50 of 77 nM.

In the case of `CN(CCOCCNC(=S)NC(=O)c1ccccc1)C1CCCCC1`, the half-inhibitory concentration (IC50) came out at 13 nM. Against the preceding compound, the IC50 is about 5.9-fold lower. `COc1ccc(NC(=S)NCCOCCN(C)Cc2cccc([N+](=O)[O-])c2)cc1OC` showed an IC50 of 1500 nM. `CCN(CCOCCNC(=O)NCc1ccccc1)CC1CCCCC1` had an IC50 of over 10000 nM. The compound `CN(CCOCCNC(=S)Nc1cccc2ccccc12)Cc1ccccc1` returned an IC50 of over 10000 nM. In the case of `CN(CCOCCNC(S)=NC(=O)c1cccc([N+](=O)[O-])c1)Cc1ccccc1` it was 15 nM; in that of `COc1ccc(C(=O)NC(=S)NCCOCCN(C)Cc2ccccc2)cc1`, 26 nM. In the case of `CN(CCOCCNC(=O)Nc1ccc([N+](=O)[O-])cc1)Cc1ccccc1` it was 2300 nM; in that of `CN(CCOCCNC(=S)NC1CCCCC1)Cc1ccccc1`, 1400 nM; in that of `CN(CCOCC/N=C(\S)Nc1cccnc1)Cc1ccccc1`, 4000 nM.

The values are drawn from ChEMBL document CHEMBL1128491, “Flexible 1-[(2-aminoethoxy)alkyl]-3-ar(o)yl(thio)ureas as novel acetylcholinesterase inhibitors. Synthesis and biochemical evaluation” (J Med Chem, 1995).
